Results published in US8822471B2, “Compounds, pharmaceutical compositions and uses thereof” (Boehringer Ingelheim International GmbH, priority 2011, dated 2014).

Biological target: T1, human GPR119 (Homo sapiens, UniProt Q8TDV5)
T1 construct: expression vector for human GPR119 cDNA (Acc. No. NP_848566); expressed in transfected cells
T1 sequence (Q8TDV5 1-335): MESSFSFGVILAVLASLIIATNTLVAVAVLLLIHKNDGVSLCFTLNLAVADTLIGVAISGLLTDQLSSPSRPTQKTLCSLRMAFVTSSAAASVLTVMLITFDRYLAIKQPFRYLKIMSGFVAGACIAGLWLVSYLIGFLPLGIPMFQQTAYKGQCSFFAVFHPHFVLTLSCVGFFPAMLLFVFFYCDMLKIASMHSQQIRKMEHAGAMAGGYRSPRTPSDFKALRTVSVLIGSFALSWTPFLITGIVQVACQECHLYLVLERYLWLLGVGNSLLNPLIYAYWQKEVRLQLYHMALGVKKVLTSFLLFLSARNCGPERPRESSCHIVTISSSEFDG
Test: AlphaScreen cAMP assay in MIN6 cells stably transfected with human GPR119
Assay type: cell-based
Details: Min-6/hGPR119 cells, AlphaScreen cAMP Assay Kit, 45 minutes incubation at room temperature
Protocol: The compounds of formula I according to the invention modulate the activity of the G-protein-coupled receptor GPR119. The effect of the compounds on the activation of GPR119 and on the stimulation of intracellular cAMP concentration is determined using the AlphaScreen cAMP Assay Kit (Cat. No. #6760625R) made by PerkinElmer.
MIN6 cells [Miyazaki J et al. Endocrinology. 1990 July; 127(1):126-32] are stably transfected with an expression vector for human GPR119 cDNA (Acc. No. NP_848566). Min-6/hGPR119 cells are cultured in DMEM, 10% FBS, 50 μM β-mercaptoethanol, 0.3 mg/mL Geniticin, 2 mM GlutaMAX at 37° C. 5% CO2. For the assay, the cells are seeded in Optiplates (white, 384-well, 160 W-barcoded, TC, sterile with lid, Cat. No. #6007688 (Perkin Elmer); 10000 cells/well; 50 μl). The plates covered with lids are then incubated for 24 hours at 37° C./5% CO2. After the medium is aspirated from the wells completely, 10 μl of the test compound are added, the compounds are diluted using stimulating buffer (140 mM NaCl, 3.6 mM KCl, 0.5 mM NaH2PO4, 0.5 mM MgSO4, 1.5 mM CaCl2, 10 mM Hepes, 5 mM NaHCO3; pH 7.4. 0.5 mM IBMX and 0.1% BSA, the final DMSO concentration is 1%). After 45 minutes incubation at room temperature (approx. 20° C.), the cAMP concentrations are determined using the AlphaScreen cAMP Assay Kit (Cat. No. #6760625R from PerkinElmer).

SMILES | EC50 [µM]
COCc1noc(N2CCC(N(C(=O)c3ccc(-c4cnco4)cc3)C3CC3)CC2)n1 [Example 4, N-Cyclopropyl-N-[1-(3-methoxymethyl-[1,2,4]oxadiazol-5-yl)-piperidin-4-yl]-4-oxazol-5-yl-benzamide] | 0.16
O=C(c1ccc(-c2cnco2)cc1)N(C1CC1)C1CCN(c2nc(Cc3ccccc3)no2)CC1 [Example 7, N-[1-(3-Benzyl-[1,2,4]oxadiazol-5-yl)-piperidin-4-yl]-N-cyclopropyl-4-oxazol-5-yl-benzamide] | 0.069
CCCc1noc(N2CCC(N(C(=O)c3ccc(-c4cnco4)cc3)C3CC3)CC2)n1 [Example 8, N-Cyclopropyl-4-oxazol-5-yl-N-[1-(3-propyl-[1,2,4]oxadiazol-5-yl)-piperidin-4-yl]-benzamide] | 0.036
O=C(c1ccc(-c2cnco2)cc1)N(C1CC1)C1CCN(c2nc(-c3ccncc3)no2)CC1 [Example 9, N-Cyclopropyl-4-oxazol-5-yl-N-[1-(3-pyridin-4-yl-[1,2,4]oxadiazol-5-yl)-piperidin-4-yl]-benzamide] | 0.08
O=C(c1ccc(-c2cnco2)cc1)N(C1CC1)C1CCN(c2nc(-c3cccc(Br)c3)no2)CC1 [Example 11, N-{1-[3-(3-Bromo-phenyl)-[1,2,4]oxadiazol-5-yl]-piperidin-4-yl}-N-cyclopropyl-4-oxazol-5-yl-benzamide] | 0.097
CCc1noc(N2CCC(N(C(=O)c3ccc(-c4cnco4)cc3)C3CC3)CC2)n1 [Example 12, N-Cyclopropyl-N-[1-(3-ethyl-[1,2,4]oxadiazol-5-yl)-piperidin-4-yl]-4-oxazol-5-yl-benzamide] | 0.051
O=C(c1ccc(-c2cnco2)cc1)N(C1CC1)C1CCN(c2nc(-c3cccnc3)no2)CC1 [Example 15, N-Cyclopropyl-4-oxazol-5-yl-N-[1-(3-pyridin-3-yl-[1,2,4]oxadiazol-5-yl)-piperidin-4-yl]-benzamide] | 0.153
Cc1nc(-c2noc(N3CCC(N(C(=O)c4ccc(-c5cnco5)cc4)C4CC4)CC3)n2)cs1 [Example 16, N-Cyclopropyl-N-{1-[3-(2-methyl-thiazol-4-yl)-[1,2,4]oxadiazol-5-yl]-piperidin-4-yl}-4-oxazol-5-yl-benzamide] | 0.206
O=C(c1ccc(-c2cnco2)cc1)N(C1CC1)C1CCN(c2nc(-c3ccccn3)no2)CC1 [Example 18, N-Cyclopropyl-4-oxazol-5-yl-N-[1-(3-pyridin-2-yl-[1,2,4]oxadiazol-5-yl)-piperidin-4-yl]-benzamide] | 0.275
O=C(c1ccc(-c2cnco2)cc1)N(C1CC1)C1CCN(c2ncccn2)CC1 [Example 20, N-Cyclopropyl-4-oxazol-5-yl-N-(1-pyrimidin-2-yl-piperidin-4-yl)-benzamide] | 0.393
N#Cc1ccc(N2CCC(N(C(=O)c3ccc(-c4cnco4)cc3)C3CC3)CC2)nc1 [Example 21, N-[1-(5-Cyano-pyridin-2-yl)-piperidin-4-yl]-N-cyclopropyl-4-oxazol-5-yl-benzamide] | 0.143
O=C(c1ccc(-c2cnco2)cc1)N(C1CC1)C1CCN(c2nc3ccccc3o2)CC1 [Example 22, N-(1-Benzooxazol-2-yl-piperidin-4-yl)-N-cyclopropyl-4-oxazol-5-yl-benzamide] | 0.06
CCCc1cnc(N2CCC(N(C(=O)c3ccc(-c4cnco4)cc3)C3CC3)CC2)nc1 [Example 23, N-Cyclopropyl-4-oxazol-5-yl-N-[1-(5-propyl-pyrimidin-2-yl)-piperidin-4-yl]-benzamide] | 0.044
O=C(c1ccc(-c2cnco2)cc1)N(C1CC1)C1CCN(c2ncc(-c3ccc(Cl)cc3)cn2)CC1 [Example 24, N-{1-[5-(4-Chloro-phenyl)-pyrimidin-2-yl]-piperidin-4-yl}-N-cyclopropyl-4-oxazol-5-yl-benzamide] | 0.232
COc1cnc(N2CCC(N(C(=O)c3ccc(-c4cnco4)cc3)C3CC3)CC2)nc1 [Example 26, N-Cyclopropyl-N-[1-(5-methoxy-pyrimidin-2-yl)-piperidin-4-yl]-4-oxazol-5-yl-benzamide] | 0.047
COc1ccc(-c2cnc(N3CCC(N(C(=O)c4ccc(-c5cnco5)cc4)C4CC4)CC3)nc2)cc1 [Example 27, N-Cyclopropyl-N-{1-[5-(4-methoxy-phenyl)-pyrimidin-2-yl]-piperidin-4-yl}-4-oxazol-5-yl-benzamide] | 0.071
O=C(c1ccc(-c2cnco2)cc1)N(C1CC1)C1CCN(c2ccccn2)CC1 [Example 28, N-Cyclopropyl-4-oxazol-5-yl-N-(1-pyridin-2-yl-piperidin-4-yl)-benzamide] | 0.676
O=C(c1ccc(-c2cnco2)cc1)N(C1CC1)C1CCN(c2ncc(F)cn2)CC1 [Example 29, N-Cyclopropyl-N-[1-(5-fluoro-pyrimidin-2-yl)-piperidin-4-yl]-4-oxazol-5-yl-benzamide] | 0.078
O=C(c1ccc(-c2cnco2)cc1)N(C1CC1)C1CCN(c2ccc(C(F)(F)F)cn2)CC1 [Example 31, N-Cyclopropyl-4-oxazol-5-yl-N-[1-(5-trifluoromethyl-pyridin-2-yl)-piperidin-4-yl]-benzamide] | 0.038

Stronger by EC50, values ahead:

EC50 [µM] | SMILES
0.032 | CCc1cnc(N2CCC(N(C(=O)c3ccc(-c4cnco4)cc3)C3CC3)CC2)nc1 [Example 19, N-Cyclopropyl-N-[1-(5-ethyl-pyrimidin-2-yl)-piperidin-4-yl]-4-oxazol-5-yl-benzamide]
0.027 | O=C(c1ccc(-c2cnco2)cc1)N(C1CC1)C1CCN(c2nc(-c3ccsc3)no2)CC1 [Example 14, N-Cyclopropyl-4-oxazol-5-yl-N-[1-(3-thiophen-3-yl-[1,2,4]oxadiazol-5-yl)-piperidin-4-yl]-benzamide]
0.026 | C=CCc1noc(N2CCC(N(C(=O)c3ccc(-c4cnco4)cc3)C3CC3)CC2)n1 [Example 13, N-[1-(3-Allyl-[1,2,4]oxadiazol-5-yl)-piperidin-4-yl]-N-cyclopropyl-4-oxazol-5-yl-benzamide]
0.023 | O=C(c1ccc(-c2cnco2)cc1)N(C1CC1)C1CCN(c2nc(-c3ccccc3)no2)CC1 [Example 6, N-Cyclopropyl-4-oxazol-5-yl-N-[1-(3-phenyl-[1,2,4]oxadiazol-5-yl)-piperidin-4-yl]-benzamide]
0.023 | O=C(c1ccc(-c2ccncc2)cc1)N(C1CC1)C1CCN(c2nc(-c3ccccc3)no2)CC1 [Example 17, N-Cyclopropyl-N-[1-(3-phenyl-[1,2,4]oxadiazol-5-yl)-piperidin-4-yl]-4-pyridin-4-yl-benzamide]
0.019 | CC(C)(C)c1noc(N2CCC(N(C(=O)c3ccc(-c4cnco4)cc3)C3CC3)CC2)n1 [Example 3, N-[1-(3-tert-Butyl-[1,2,4]oxadiazol-5-yl)-piperidin-4-yl]-N-cyclopropyl-4-oxazol-5-yl-benzamide]
0.019 | O=C(c1ccc(-c2cnco2)cc1)N(C1CC1)C1CCN(c2ncc(Cl)cn2)CC1 [Example 30, N-[1-(5-Chloro-pyrimidin-2-yl)-piperidin-4-yl]-N-cyclopropyl-4-oxazol-5-yl-benzamide]
0.017 | O=C(c1ccc(-c2cnco2)cc1)N(C1CC1)C1CCN(c2ncc(Br)cn2)CC1 [Example 25, N-[1-(5-Bromo-pyrimidin-2-yl)-piperidin-4-yl]-N-cyclopropyl-4-oxazol-5-yl-benzamide]
0.015 | CC(C)c1noc(N2CCC(N(C(=O)c3ccc(-c4cnco4)cc3)C3CC3)CC2)n1 [Example 1, N-Cyclopropyl-N-[1-(3-isopropyl-[1,2,4]oxadiazol-5-yl)-piperidin-4-yl]-4-oxazol-5-yl-benzamide]
0.015 | CC(C)Cc1noc(N2CCC(N(C(=O)c3ccc(-c4cnco4)cc3)C3CC3)CC2)n1 [Example 2, N-Cyclopropyl-N-[1-(3-isobutyl-[1,2,4]oxadiazol-5-yl)-piperidin-4-yl]-4-oxazol-5-yl-benzamide]
0.014 | O=C(c1ccc(-c2cnco2)cc1)N(C1CC1)C1CCN(c2nc(-c3ccc(I)cc3)no2)CC1 [Example 5, N-Cyclopropyl-N-{1-[3-(4-iodo-phenyl)-[1,2,4]oxadiazol-5-yl]-piperidin-4-yl}-4-oxazol-5-yl-benzamide]
0.013 | O=C(c1ccc(-c2cnco2)cc1)N(C1CC1)C1CCN(c2nc(-c3ccc(F)cc3)no2)CC1 [Example 10, N-Cyclopropyl-N-{1-[3-(4-fluoro-phenyl)-[1,2,4]oxadiazol-5-yl]-piperidin-4-yl}-4-oxazol-5-yl-benzamide]
